Measurements taken from patent US9616063B2, “1-[2-(aminomethyl)benzyl]-2-thioxo-1,2,3,5-tetrahydro-4H-pyrrolo[3,2-d]pyrimidin-4-ones as inhibitors of myeloperoxidase” (AstraZeneca AB, priority 2014, dated 2017).

Columns and labels:
[1] = molecular target: baculovirus-expressed recombinant human TPO (Homo sapiens (Human), UniProt P07202); test: TPO inhibition (hypoiodous acid production, absorbance at 353 nm); format: biochemical
Description: To detect thyroid peroxidase (TPO) inhibitory activity, the production of hypoiodous acid (HOI) was quantified. HOI was detected by reacting it with methionine, which is converted to dehydro-methionine, which in turn is detected by reacting it with excess iodide at acidic pH. The reaction converts I^− to I3^− that has absorbance at 353 nm. In brief, 0.6 μL compound serially diluted in DMSO was added to 25 μL 50 nM baculovirus-expressed recombinant human TPO (obtained from RSR Ltd, Cardiff, UK) in assay buffer (100 mM Na2HPO4/NaH2PO4, pH 7.4), after which absorbance at 353 nm was read to obtain a blank value. The enzyme reaction was initiated by the addition of 25 μL of a mix consisting of 2 mM methionine, 20 μM NaI and 100 μM H2O2 in assay buffer, and stopped by the addition of 10 μL catalase, 0.25 mg/mL. […] IC50 values of the compounds tested were obtained using standard procedures.

[2] = Plasma urate levels in Healthy Volunteers after MPO inhibitor treatment (clinical trial); format: in vivo, human; conditions: daily dose for 10 days, FIG. 2, NCT00914303
Description: Subjects received placebo or the indicated daily dose for 10 days, and the difference in plasma urate levels versus baseline was calculated. Each symbol represents one subject.

[3] = healthy subjects, clinical trial, data not shown; cited from earlier work
[4] = molecular target: MPO purified from the human cell line HL60 (Homo sapiens (Human), UniProt P05164); test: MPO inhibition, Test A (loss of ascorbate, absorbance at 260 nm); format: biochemical; conditions: absorbance at 260 nm 20 minutes after substrate addition
Description: (§1) Methods for the determination of MPO inhibitory activity are disclosed in WO 02/090575. The pharmacological activity of compounds disclosed herein was tested in the following screen (Test A) in which the compounds were tested in the presence of ascorbate, which reacts with MPO-derived hypochlorous acid (HOCl) to form dehydro-ascorbate. The loss of ascorbate is followed by measuring absorbance at 260 nm.
(§2) Assay buffer: 100 μM diethyl triamine pentaacetic acid (DTPA) in buffer consisting of 10 mM Na2HPO4/NaH2PO4, 3 mM KCl in 140 mM NaCl, pH 7.4.
(§3) Enzyme solution: MPO purified from the human cell line HL60, 1.38 nM (final concentration 0.7 nM) and L-ascorbate, 100 μM (final concentration 50 μM) in Assay buffer
(§4) Substrate solution: H2O2, 98 μM (final concentration 49 μM) Forty μL of the enzyme solution was added to 0.6 μL compound serially diluted in DMSO. Absorbance was measured at 260 nm to obtain a compound blank value. After an additional 10 min, 40 μL of the substrate solution was added and the absorbance at 260 nm was recorded between 4 and 40 min to obtain kinetic readings of enzyme activity.

[5] = tested on: MPO purified from the human cell line HL60; test: as above; format: biochemical; conditions: ratio TPO to MPO, selectivity for MPO over TPO
Description: as §1, §2, §3, §4

activated MPO = activated MPO (Homo sapiens (Human), UniProt P05164); test: Urate production from xanthine by activated MPO in vitro (LC-MS); format: biochemical; conditions: activated MPO incubated with xanthine and titrated compound for 80 min
Text: The dotted line represents the urate formed in the presence of unactivated MPO.
In addition to MPOs role in maintaining elevated urate levels due to poor perfusion as discussed above, we also propose that MPO per se may generate urate by oxidizing xanthine in concert with xanthine oxidase.

Chain of MPO purified from the human cell line HL60 (Homo sapiens (Human), UniProt P05164) (P05164 whole entry, looked up, change not shown): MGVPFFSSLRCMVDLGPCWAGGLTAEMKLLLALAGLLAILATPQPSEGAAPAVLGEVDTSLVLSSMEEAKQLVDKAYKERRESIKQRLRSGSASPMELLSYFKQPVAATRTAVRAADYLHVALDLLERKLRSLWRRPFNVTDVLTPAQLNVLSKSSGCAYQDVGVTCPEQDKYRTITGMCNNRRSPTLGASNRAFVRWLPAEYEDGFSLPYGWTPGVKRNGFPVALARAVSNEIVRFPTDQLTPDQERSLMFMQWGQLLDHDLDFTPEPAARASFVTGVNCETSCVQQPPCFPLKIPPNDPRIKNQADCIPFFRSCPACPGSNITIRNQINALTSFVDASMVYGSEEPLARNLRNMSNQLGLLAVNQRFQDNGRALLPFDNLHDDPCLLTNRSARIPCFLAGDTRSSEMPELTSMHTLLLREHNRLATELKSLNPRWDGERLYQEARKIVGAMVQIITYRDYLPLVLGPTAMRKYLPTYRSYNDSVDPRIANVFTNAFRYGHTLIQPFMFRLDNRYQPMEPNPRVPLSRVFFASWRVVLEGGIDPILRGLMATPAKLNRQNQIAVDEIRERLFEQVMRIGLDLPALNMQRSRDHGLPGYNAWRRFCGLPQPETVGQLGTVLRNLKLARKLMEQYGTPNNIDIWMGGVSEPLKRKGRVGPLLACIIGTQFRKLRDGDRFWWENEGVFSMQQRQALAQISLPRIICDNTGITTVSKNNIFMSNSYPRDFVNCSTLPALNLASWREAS
Chain of MPO purified from the human cell line HL60 (Homo sapiens (Human), UniProt P05164) (P05164 whole entry, looked up, change not shown): as above
Chain of baculovirus-expressed recombinant human TPO (P07202 19-933): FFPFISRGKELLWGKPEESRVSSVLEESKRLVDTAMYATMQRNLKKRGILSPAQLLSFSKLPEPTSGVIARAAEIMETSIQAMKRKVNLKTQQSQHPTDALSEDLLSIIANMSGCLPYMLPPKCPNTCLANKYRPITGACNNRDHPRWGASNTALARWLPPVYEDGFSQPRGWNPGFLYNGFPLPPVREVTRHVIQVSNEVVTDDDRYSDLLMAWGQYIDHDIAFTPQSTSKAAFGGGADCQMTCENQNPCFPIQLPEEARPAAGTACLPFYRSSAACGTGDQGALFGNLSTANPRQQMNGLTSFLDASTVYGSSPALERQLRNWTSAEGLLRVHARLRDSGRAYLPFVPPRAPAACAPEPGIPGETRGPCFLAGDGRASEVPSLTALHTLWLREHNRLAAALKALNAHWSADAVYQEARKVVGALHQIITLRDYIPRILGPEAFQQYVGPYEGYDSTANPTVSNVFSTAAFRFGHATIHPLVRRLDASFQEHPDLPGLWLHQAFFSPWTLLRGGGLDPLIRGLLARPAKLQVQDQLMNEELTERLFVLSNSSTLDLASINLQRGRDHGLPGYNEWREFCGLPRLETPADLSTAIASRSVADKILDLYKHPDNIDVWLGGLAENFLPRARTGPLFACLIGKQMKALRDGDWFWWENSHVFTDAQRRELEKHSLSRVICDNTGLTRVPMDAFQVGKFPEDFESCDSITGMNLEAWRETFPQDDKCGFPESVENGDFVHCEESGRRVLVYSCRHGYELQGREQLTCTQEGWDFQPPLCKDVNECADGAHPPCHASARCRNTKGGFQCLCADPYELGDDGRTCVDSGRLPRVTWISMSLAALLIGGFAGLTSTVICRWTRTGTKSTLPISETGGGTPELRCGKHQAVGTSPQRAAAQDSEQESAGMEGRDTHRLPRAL
Chain of activated MPO (P05164 49-745): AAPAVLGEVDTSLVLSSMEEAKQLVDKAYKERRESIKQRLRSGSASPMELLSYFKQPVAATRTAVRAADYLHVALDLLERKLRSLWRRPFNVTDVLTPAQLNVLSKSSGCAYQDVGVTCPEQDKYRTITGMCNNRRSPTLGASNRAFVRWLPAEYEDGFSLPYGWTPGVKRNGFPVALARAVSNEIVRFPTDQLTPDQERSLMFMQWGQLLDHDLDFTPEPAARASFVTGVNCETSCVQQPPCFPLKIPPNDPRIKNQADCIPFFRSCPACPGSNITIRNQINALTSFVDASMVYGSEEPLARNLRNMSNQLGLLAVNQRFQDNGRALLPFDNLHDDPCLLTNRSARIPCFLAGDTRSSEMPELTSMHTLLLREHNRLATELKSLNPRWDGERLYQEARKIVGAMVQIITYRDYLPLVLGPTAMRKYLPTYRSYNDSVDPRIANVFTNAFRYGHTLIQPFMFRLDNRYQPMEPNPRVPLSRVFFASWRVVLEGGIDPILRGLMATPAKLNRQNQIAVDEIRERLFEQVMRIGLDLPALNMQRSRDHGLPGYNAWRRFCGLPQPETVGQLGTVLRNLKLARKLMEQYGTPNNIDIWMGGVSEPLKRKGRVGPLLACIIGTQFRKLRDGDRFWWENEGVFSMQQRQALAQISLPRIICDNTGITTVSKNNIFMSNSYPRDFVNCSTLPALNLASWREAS

Structure (SMILES)	IC50 [1] [µM]	IC50 [4] [µM]	IC50 (TPO)/IC50 (MPO) [5]	inhibition of urate production by activated MPO (activated MPO)	reduction of plasma urate levels versus baseline [2]	reduction of urate levels [3]
CC(C)OCCn1c(=S)[nH]c(=O)c2[nH]ccc21 [AZD3241]	–	–	–	–	dose-dependently reduced urate levels	–
O=c1[nH]c(=S)n(C[C@H]2CCCO2)c2nc[nH]c12 [AZD5904]	–	–	–	–	–	dose-dependently reduced urate levels
C[C@H](N)c1cc(Cl)ccc1Cn1c(=S)[nH]c(=O)c2[nH]ccc21 [Example 4b, 1-{2-[(1S)-1-Aminoethyl]-4-chlorobenzyl}-2-thioxo-1,2,3,5-tetrahydro-4H-pyrrolo[3,2-d]pyrimidin-4-one]	68	–	–	–	–	–
O=c1[nH]c(=S)n(Cc2ccccc2CNC2CCCC2)c2cc[nH]c12 [Example 11, 1-{2-[(Cyclopentylamino)methyl]benzyl}-2-thioxo-1,2,3,5-tetrahydro-4H-pyrrolo[3,2-d]pyrimidin-4-one]	19	0.014	1357	–	–	–
CC(C)CNCc1ccccc1Cn1c(=S)[nH]c(=O)c2[nH]ccc21 [Example 12, 1-(2-{[(2-Methylpropyl)amino]methyl}benzyl)-2-thioxo-1,2,3,5-tetrahydro-4H-pyrrolo[3,2-d]pyrimidin-4-one]	46	0.054	852	–	–	–
CC(C)NCc1ccccc1Cn1c(=S)[nH]c(=O)c2[nH]ccc21 [Example 13, 1-{2-[(Propan-2-ylamino)methyl]benzyl}-2-thioxo-1,2,3,5-tetrahydro-4H-pyrrolo[3,2-d]pyrimidin-4-one]	38	0.024	1609	–	–	–
NCc1cc(C(F)(F)F)ccc1Cn1c(=S)[nH]c(=O)c2[nH]ccc21 [Example 14, 1-[2-(Aminomethyl)-4-(trifluoromethyl)benzyl]-2-thioxo-1,2,3,5-tetrahydro-4H-pyrrolo[3,2-d]pyrimidin-4-one]	28	0.04	697	–	–	–

Second part, led by results:

IC50 [1] [µM]	IC50 [4] [µM]	IC50 (TPO)/IC50 (MPO) [5]	inhibition of urate production by activated MPO (activated MPO)	Structure (SMILES)	reduction of plasma urate levels versus baseline [2]	reduction of urate levels [3]
8.8	–	–	–	CC(N)c1cc(Cl)ccc1Cn1c(=S)[nH]c(=O)c2[nH]ccc21 (racemic) [Example 2, 1-[2-(1-Aminoethyl)-4-chlorobenzyl]-2-thioxo-1,2,3,5-tetrahydro-4H-pyrrolo[3,2-d]pyrimidin-4-one]	–	–
4.4	0.0086	512	–	CC[C@@H](N)c1cc(Cl)ccc1Cn1c(=S)[nH]c(=O)c2[nH]ccc21 [Example 1, 1-{2-[(1R)-1-Aminopropyl]-4-chlorobenzyl}-2-thioxo-1,2,3,5-tetrahydro-4H-pyrrolo[3,2-d]pyrimidin-4-one]	–	–
4.3	–	–	concentration-dependently inhibited	C[C@@H](N)c1cc(Cl)ccc1Cn1c(=S)[nH]c(=O)c2[nH]ccc21 [Example 3, 1-{2-[(1R)-1-Aminoethyl]-4-chlorobenzyl}-2-thioxo-1,2,3,5-tetrahydro-4H-pyrrolo[3,2-d]pyrimidin-4-one]	–	–
8.9	0.019	468	–	CNC(C)c1cc(Cl)ccc1Cn1c(=S)[nH]c(=O)c2[nH]ccc21 (stereo not shown) [Example 5, 1-{4-Chloro-2-[1-(methylamino)ethyl]benzyl}-2-thioxo-1,2,3,5-tetrahydro-4H-pyrrolo[3,2-d]pyrimidin-4-one]	–	–
10	0.022	455	–	CCNCc1cc(Cl)ccc1Cn1c(=S)[nH]c(=O)c2[nH]ccc21 [Example 6, 1-{4-Chloro-2-[(ethylamino)methyl]benzyl}-2-thioxo-1,2,3,5-tetrahydro-4H-pyrrolo[3,2-d]pyrimidin-4-one]	–	–
11	–	–	–	NCc1cc(Cl)ccc1Cn1c(=S)[nH]c(=O)c2[nH]ccc21 [Example 7, 1-[2-(Aminomethyl)-4-chlorobenzyl]-2-thioxo-1,2,3,5-tetrahydro-4H-pyrrolo[3,2-d]pyrimidin-4-one]	–	–
13	0.013	952	–	CNCc1cc(Cl)ccc1Cn1c(=S)[nH]c(=O)c2[nH]ccc21 [Example 8, 1-{4-Chloro-2-[(methylamino)methyl]benzyl}-2-thioxo-1,2,3,5-tetrahydro-4H-pyrrolo[3,2-d]pyrimidin-4-one]	–	–
16	0.029	552	–	O=c1[nH]c(=S)n(Cc2ccccc2CNCC2CCC2)c2cc[nH]c12 [Example 9, 1-(2-{[(Cyclobutylmethyl)amino]methyl}benzyl)-2-thioxo-1,2,3,5-tetrahydro-4H-pyrrolo[3,2-d]pyrimidin-4-one]	–	–
11	0.01	1100	–	O=c1[nH]c(=S)n(Cc2ccccc2CNC2CCC2)c2cc[nH]c12 [Example 10, 1-{2-[(Cyclobutylamino)methyl]benzyl}-2-thioxo-1,2,3,5-tetrahydro-4H-pyrrolo[3,2-d]pyrimidin-4-one]	–	–
11	0.049	224	–	CNCc1cc(C(F)(F)F)ccc1Cn1c(=S)[nH]c(=O)c2[nH]ccc21 [Example 15, 1-{2-[(Methylamino)methyl]-4-(trifluoromethyl)benzyl}-2-thioxo-1,2,3,5-tetrahydro-4H-pyrrolo[3,2-d]pyrimidin-4-one]	–	–
